These results are taken from patent publication US9676760B2, “Fused heterocyclic compounds as ion channel modulators” (Gilead Sciences, Inc., priority 2011, dated 2017).

Experiment [1] deals with T1, wild-type human cardiac sodium channel, hNav1.5 (Homo sapiens, UniProt Q14524). As to the kind of experiment: Late INa screening assay (QPatch whole cell patch clamp, HEK293). The class given is cell-based. Put shortly: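 HEK293 stably expressing hNav1.5 without beta subunits, recorded at 23-25° C. Late current was induced by 10 μM tefluthrin. Cells were depolarized from −120 mV to −20 mV for 250 ms at 0.1 Hz. Compounds were tested at 1 μM in extracellular solution, with baseline taken in 0Na-ECF; output is percent block of late INa.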
A general note: Patch clamp records ionic current or voltage across a cell membrane.

In experiment [2] the target is T1, wild-type human cardiac sodium channel, hNav1.5. The experiment in a line: Peak INa screening assay (tonic and use-dependent block). The class given is cell-based. The note with it: for inhibition at 1 µM: compound at 1 μM. Put shortly:
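Whole-cell automated patch clamp (QPatch) at 23–25°C on HEK293 cells stably expressing hNav1.5 alpha subunit only, with CsF/CsCl pipette solution, pH 7.4. Compound at 1 μM in extracellular solution; bath Na+ could be cut to 20 mM with a nonpermeant cation. Tonic block measured at 0.1 Hz, use-dependent block at 3 Hz.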

The mark [3] stands for this setting: HEK293, % Inhibition at 1 uM, read-out: Late INa*.
Setting [4] is: HEK293, percent block of late INa, compound at 1 μM, 10 μM Tefluthrin, read-out: Late INa 1 μM.
The mark [5] stands for this setting: tonic block of peak INa, 0.1 Hz, read-out: Peak TB 1 μM.
Setting [6] is: use-dependent block of peak INa, 3 Hz, read-out: Peak UDB 1 μM.

T1 sequence (Q14524 whole entry): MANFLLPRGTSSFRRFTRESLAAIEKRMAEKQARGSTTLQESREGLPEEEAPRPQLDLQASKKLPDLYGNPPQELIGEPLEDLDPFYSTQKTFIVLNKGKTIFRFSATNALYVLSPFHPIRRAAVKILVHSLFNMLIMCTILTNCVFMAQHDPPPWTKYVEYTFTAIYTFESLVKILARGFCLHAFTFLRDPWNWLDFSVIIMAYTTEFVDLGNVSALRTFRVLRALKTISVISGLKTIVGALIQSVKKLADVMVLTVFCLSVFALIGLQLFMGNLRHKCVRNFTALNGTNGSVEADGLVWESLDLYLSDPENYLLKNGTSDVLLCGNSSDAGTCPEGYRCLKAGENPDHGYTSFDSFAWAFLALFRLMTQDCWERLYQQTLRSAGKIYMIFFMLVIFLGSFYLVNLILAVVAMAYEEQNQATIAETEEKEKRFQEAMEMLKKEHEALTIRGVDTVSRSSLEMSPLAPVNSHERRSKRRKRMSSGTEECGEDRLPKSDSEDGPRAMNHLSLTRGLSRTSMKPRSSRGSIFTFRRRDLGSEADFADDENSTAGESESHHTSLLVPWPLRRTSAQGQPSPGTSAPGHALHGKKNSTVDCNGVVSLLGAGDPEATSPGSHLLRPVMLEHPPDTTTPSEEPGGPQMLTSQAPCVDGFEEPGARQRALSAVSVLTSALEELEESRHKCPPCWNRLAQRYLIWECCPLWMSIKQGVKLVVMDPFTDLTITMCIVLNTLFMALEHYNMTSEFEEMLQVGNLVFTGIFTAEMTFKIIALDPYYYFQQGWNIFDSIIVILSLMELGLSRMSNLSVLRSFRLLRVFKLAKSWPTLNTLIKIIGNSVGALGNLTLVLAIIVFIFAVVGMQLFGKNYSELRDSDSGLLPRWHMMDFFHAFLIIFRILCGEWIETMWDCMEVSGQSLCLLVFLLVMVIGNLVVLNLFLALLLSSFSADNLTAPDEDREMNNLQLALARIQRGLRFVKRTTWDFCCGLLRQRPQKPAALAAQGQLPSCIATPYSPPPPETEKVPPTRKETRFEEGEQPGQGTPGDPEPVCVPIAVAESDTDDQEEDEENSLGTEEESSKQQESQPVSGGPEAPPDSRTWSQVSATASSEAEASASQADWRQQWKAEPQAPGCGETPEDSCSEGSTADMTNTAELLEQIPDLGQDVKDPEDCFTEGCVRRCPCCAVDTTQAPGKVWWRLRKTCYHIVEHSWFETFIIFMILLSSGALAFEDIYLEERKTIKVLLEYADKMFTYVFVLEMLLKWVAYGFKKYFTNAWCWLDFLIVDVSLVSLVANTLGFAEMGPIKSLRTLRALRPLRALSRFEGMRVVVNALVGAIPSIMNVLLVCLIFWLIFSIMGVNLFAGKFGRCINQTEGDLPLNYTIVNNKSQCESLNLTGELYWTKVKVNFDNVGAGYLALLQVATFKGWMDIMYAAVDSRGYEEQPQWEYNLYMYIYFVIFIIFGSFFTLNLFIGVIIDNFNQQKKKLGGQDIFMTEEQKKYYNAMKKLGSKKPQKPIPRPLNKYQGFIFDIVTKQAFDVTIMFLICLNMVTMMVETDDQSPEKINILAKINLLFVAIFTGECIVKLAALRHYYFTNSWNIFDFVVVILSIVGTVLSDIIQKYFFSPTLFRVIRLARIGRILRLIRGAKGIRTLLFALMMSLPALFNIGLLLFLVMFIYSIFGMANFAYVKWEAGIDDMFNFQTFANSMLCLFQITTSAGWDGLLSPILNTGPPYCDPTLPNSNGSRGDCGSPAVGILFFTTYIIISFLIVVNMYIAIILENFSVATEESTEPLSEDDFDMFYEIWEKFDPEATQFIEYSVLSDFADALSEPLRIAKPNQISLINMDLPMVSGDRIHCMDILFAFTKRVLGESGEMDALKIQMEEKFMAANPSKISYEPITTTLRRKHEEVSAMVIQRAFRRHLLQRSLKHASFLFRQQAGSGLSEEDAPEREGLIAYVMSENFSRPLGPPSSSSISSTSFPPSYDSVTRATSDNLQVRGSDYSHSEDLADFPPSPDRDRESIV

Turning to `O=C(c1ncccn1)N1CCOc2ccc(-c3ccc(OC(F)(F)F)cc3)cc2C1` [III-1, pyrimidin-2-yl(7-(4-(trifluoromethoxy)phenyl)-2,3-dihydrobenzo[f][1,4]oxazepin-4(5H)-yl)methanone], the inhibition at 1 µM in experiment [1] (setting [3]) and in experiment [1] (setting [4]) was 33% throughout.

Turning to `O=C1c2cc(-c3ccc(Cl)cc3F)ccc2OCCN1Cc1ncccn1` [II-117, 7-(4-chloro-2-fluorophenyl)-4-(pyrimidin-2-ylmethyl)-3,4-dihydrobenzo[f][1,4]oxazepin-5(2H)-one], the inhibition at 1 µM in experiment [1] (setting [3]) and in experiment [1] (setting [4]) was 37% each time.

On to `O=C1c2cc(-c3ccc(OC(F)(F)F)cc3)ccc2OCCN1Cc1ncccn1` [II-73, 4-(pyrimidin-2-ylmethyl)-7-(4-(trifluoromethoxy)phenyl)-3,4-dihydrobenzo[f][1,4]oxazepin-5(2H)-one], for which the inhibition at 1 µM in experiment [1] (setting [3]) and in experiment [1] (setting [4]) was 42% each time.

Consider `O=C1c2cc(-c3ccc(C(F)(F)F)cc3F)ccc2OCCN1Cc1ncccn1` [II-105, 7-(2-fluoro-4-(trifluoromethyl)phenyl)-4-(pyrimidin-2-ylmethyl)-3,4-dihydrobenzo[f][1,4]oxazepin-5(2H)-one], for which the “peak INa TB” value in experiment [2] (measured at 1 μM) was found to be 9%. Besides, in experiment [2] (measured at 1 μM), the “peak INa UDB” value worked out at 11%. The inhibition at 1 µM was 9% in experiment [2] (setting [5]), 11% in experiment [2] (setting [6]), 45% in experiment [1] (setting [3]) and 45% in experiment [1] (setting [4]).

On to `O=C1c2cc(-c3ccc(C(F)(F)F)cc3)ccc2OCCN1Cc1cn2ccccc2n1` [II-129, 4-(imidazo[1,2-a]pyridin-2-ylmethyl)-7-(4-(trifluoromethyl)phenyl)-3,4-dihydrobenzo[f][1,4]oxazepin-5(2H)-one], for which the inhibition at 1 µM in experiment [1] (setting [3]) and in experiment [1] (setting [4]) was 33% in each case.

Turning to `O=C1c2cc(C#Cc3ccc(C(F)(F)F)cc3)ccc2OCCN1Cc1ncccn1` [VIII-6, 4-(pyrimidin-2-ylmethyl)-7-((4-(trifluoromethyl)phenyl)ethynyl)-3,4-dihydrobenzo[f][1,4]oxazepin-5(2H)-one], the inhibition at 1 µM in experiment [1] (setting [3]) and in experiment [1] (setting [4]) was 38% in each case.

On to `O=C1c2cc(-c3ccc(Cl)cc3)ccc2OCCN1Cc1ncccn1` [II-88, 7-(4-chlorophenyl)-4-(pyrimidin-2-ylmethyl)-3,4-dihydrobenzo[f][1,4]oxazepin-5(2H)-one], for which the inhibition at 1 µM in experiment [1] (setting [3]) and in experiment [1] (setting [4]) was 41% in each case.

Turning to `O=C1c2cc(-c3ccc(C(F)(F)F)cc3Cl)ccc2OCCN1Cc1ncccn1` [II-110, 7-(2-chloro-4-(trifluoromethyl)phenyl)-4-(pyrimidin-2-ylmethyl)-3,4-dihydrobenzo[f][1,4]oxazepin-5(2H)-one], the inhibition at 1 µM in experiment [1] (setting [3]) and in experiment [1] (setting [4]) was 35% throughout.

In the case of `O=C1c2cc(-c3ccc(C(F)(F)F)cc3)ccc2OC[C@H]2CN(CC(F)(F)F)CCN12` [II-83, (R)-2-(2,2,2-trifluoroethyl)-8-(4-(trifluoromethyl)phenyl)-3,4,12,12a-tetrahydro-1H-benzo[f]pyrazino[2,1-c][1,4]oxazepin-6(2H)-one], the inhibition at 1 µM in experiment [1] (setting [3]) and in experiment [1] (setting [4]) was 31% in each case.

With `O=C1CN(Cc2ccccc2)C(=O)c2cc(-c3ccc(C(F)(F)F)cc3)ccc2N1` [Compound X-8, 4-benzyl-7-(4-(trifluoromethyl)phenyl)-3,4-dihydro-1H-benzo[e][1,4]diazepine-2,5-dione], the inhibition at 1 µM in experiment [2] (setting [5]) came out at 6%; in experiment [2] (setting [6]) it was 10%; in experiment [1] (setting [3]) it was 50%; in experiment [1] (setting [4]) it was 50%.

Consider `CC(C)(C)c1ccc(-c2ccc3c(c2)C(=O)N(Cc2ncccn2)CCO3)cc1` [II-98, 7-(4-tert-butylphenyl)-4-(pyrimidin-2-ylmethyl)-3,4-dihydrobenzo[f][1,4]oxazepin-5(2H)-one], for which the inhibition at 1 µM in experiment [1] (setting [3]) and in experiment [1] (setting [4]) was 39% throughout.

Turning to `O=C1c2cc(C#Cc3ccc(OC(F)(F)F)cc3)ccc2OCCN1Cc1ncccn1` [VIII-4, 4-(pyrimidin-2-ylmethyl)-7-((4-(trifluoromethoxy)phenyl)ethynyl)-3,4-dihydrobenzo[f][1,4]oxazepin-5(2H)-one], the inhibition at 1 µM in experiment [2] (setting [5]) was determined as 12%; in experiment [2] (setting [6]), 19%; in experiment [1] (setting [3]) it was 61%; in experiment [1] (setting [4]) it was 61%.

In the case of `O=C1c2cc(-c3ccc(C(F)(F)F)cc3)ccc2OC[C@H]2CN(CC(F)F)CCN12` [II-22, (R)-2-(2,2-difluoroethyl)-8-(4-(trifluoromethyl)phenyl)-3,4,12,12a-tetrahydro-1H-benzo[f]pyrazino[2,1-c][1,4]oxazepin-6(2H)-one], the inhibition at 1 µM in experiment [1] (setting [3]) and in experiment [1] (setting [4]) was 30% in each case.
